Patent US20240109917A1 (ACTELION PHARMACEUTICALS LTD, priority 2020, published 2024)
Like-named read-outs stand apart in the source and are kept apart here.

Assays:
PDGFRβ = PDGFRβ (Rattus norvegicus (Rat), UniProt Q05030); assay: PDGFRβ Cellular Assay (PDGFRb P-Y751 HTRF in A10 cells stimulated with PDGF-BB); format: cell-based
Protocol: (§1) II. Methods and Procedures
Cell Culture and Preparation: Cells are cultured according to ATCC procedure (5) with the addition of the antibiotic penicillin-streptomycin. If working from frozen, cells should be thawed according to ATCC procedure. Depending on the cell density of frozen vial, cells will need time to recover from thaw. An 80% confluent T75 flask should be enough for one 384 well plate.
Stock Solutions: Rat PDGFBB. A 100 ug/mL stock is prepared by reconstituting 50 ug in 500 uL of 4 mM HCl and 0.1% BSA. It can be stored for a month at 4° C., or aliquoted out and frozen in the −20/−80° C. to avoid multiple free-thaw cycles.
(§2) Freshly Prepared Solutions:
1× Cisbio cell lysis buffer. The cell lysis buffer is diluted 4-fold with molecular grade water. The blocking agent is then diluted 25-fold in the diluted lysis buffer.
Antibody solutions. Equal amounts d2 and cryptate antibody are diluted 20-fold in detection buffer.
Rat PDGFBB. A working stock of 100 ng/mL is created from the stock solution in 10% FBS culture media.
Step 1: Plating Cells: Media from the A10 cell flask is aspirated. The cells are rinsed with PBS and then trypsinized to disperse the cell layer. The cells are then pelleted are resuspended to 1.25e5 cells/mL. […] Plates are covered and placed in the incubator (37° C. 5% CO2) overnight to allow cells to adhere.
Step 2: Compound Dispense: Approximately 18 hours after plating, dispense 40 nL compound onto cells using Echo. Column 12 is the neutral control DMSO, column 24 is the inhibitor control 10 mM Imatinib (10 uM final assay concentration). The plate is returned to the incubator for 3 hours.
After 10 minutes the media is removed by flicking the plate.
Step 4: Cell lysis and antibody addition: 20 uL lysis buffer per well is added to the plate via Tempest. 5 uL antibody solution is added per well via the Tempest. The plate is placed on the shaker at 230 rpm for 1 hour at room temperature.
Step 5: Detection: The plate is read using the HTRF module on the BMG Pherastar. Data is analyzed using Genedata Screener.
(§3) III. Calculations and Formulas
% Inhibition: % Inhibition=(NC−sample)/(NC−PC)*100 where NC is the mean of negative control (reactions without inhibitor), and PC is the mean of positive control (10 μM imatinib).
IC50 values are determined from a 4-parameter fit, using the following equation: Y=Bottom+(Top−Bottom)/(1+10((Log IC50−X)*Hill slope)), where X=log10 of the compound concentration; top can be defined by PC; bottom defined by NC.

VEGFR2, unphosphorylated = VEGFR2, unphosphorylated (Homo sapiens (Human), UniProt P35968); assay: VEGFR ADP GLO Assay; format: biochemical
VEGFR2, unphosphorylated, sequence (P35968 20-1356): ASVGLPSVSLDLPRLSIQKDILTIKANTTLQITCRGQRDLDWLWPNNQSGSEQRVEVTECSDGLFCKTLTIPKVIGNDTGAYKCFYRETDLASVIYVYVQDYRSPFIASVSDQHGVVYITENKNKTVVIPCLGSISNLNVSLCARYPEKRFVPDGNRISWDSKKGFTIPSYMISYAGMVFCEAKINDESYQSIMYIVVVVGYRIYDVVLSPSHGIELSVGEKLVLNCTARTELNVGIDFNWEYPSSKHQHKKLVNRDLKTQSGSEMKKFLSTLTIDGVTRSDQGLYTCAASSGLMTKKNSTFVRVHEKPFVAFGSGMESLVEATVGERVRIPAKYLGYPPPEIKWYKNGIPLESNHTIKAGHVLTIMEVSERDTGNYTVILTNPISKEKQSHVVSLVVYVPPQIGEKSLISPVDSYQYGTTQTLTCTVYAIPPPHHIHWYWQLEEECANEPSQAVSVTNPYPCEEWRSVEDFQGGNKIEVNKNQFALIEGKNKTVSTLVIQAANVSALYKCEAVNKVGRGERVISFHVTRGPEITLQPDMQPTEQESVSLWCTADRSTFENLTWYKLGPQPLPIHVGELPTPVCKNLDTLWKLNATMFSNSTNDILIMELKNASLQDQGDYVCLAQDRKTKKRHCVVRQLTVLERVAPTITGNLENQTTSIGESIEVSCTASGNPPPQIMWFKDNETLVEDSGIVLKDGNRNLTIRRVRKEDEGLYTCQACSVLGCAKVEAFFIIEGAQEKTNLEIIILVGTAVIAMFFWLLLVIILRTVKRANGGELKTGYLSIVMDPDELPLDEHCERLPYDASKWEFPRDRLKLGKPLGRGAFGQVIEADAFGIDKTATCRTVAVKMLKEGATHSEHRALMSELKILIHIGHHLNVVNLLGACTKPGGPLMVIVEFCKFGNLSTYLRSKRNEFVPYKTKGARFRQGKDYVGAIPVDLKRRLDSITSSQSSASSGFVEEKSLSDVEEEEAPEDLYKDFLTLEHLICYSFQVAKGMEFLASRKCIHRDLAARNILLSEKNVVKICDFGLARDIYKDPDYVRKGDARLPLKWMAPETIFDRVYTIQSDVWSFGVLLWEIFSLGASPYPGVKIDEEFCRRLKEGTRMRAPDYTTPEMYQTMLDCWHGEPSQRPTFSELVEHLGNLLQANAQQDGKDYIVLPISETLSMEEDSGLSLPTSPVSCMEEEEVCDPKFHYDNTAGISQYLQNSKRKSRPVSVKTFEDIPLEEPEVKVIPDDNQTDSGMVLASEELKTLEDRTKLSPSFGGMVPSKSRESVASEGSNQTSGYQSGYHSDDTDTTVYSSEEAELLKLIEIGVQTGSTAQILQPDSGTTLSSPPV
Protocol: as §1
Assay buffer stock contains 50 mM HEPES pH7.5, 10 mM MgCl2, 0.01% Brij-35, and 1 mM EGTA.
Unphosphorylated VEGFR2. […] Store at −80° C. in aliquots.
Sonicate 10 mg/ml Srctide solution for 10 minutes and then vacuum filter.
Freshly Prepared Solutions
2× kinase solution. Make a working solution of 10 nM unphosphorylated VEGFR2 in Assay buffer. Vacuum filter 2× kinase solution prior to running assay. Keep on ice until use.
2× substrate/ATP solution. Make a working solution of 2 mg/mL srctide and 2.4 mM ATP in Assay buffer. Keep on ice until use.
Step 1. Dispensing inhibitors/controls: Using Echo, dispense 10 nL/well compound serial dilutions in DMSO to columns 1-22 (in 384-well plates) or columns 1-44 (in 1536-well plates). Dilution series=11 pt, 3-fold dilutions. The top compound concentration in the source plate is 4 mM. The top compound concentration in the assay plate is 10 uM. Using Echo, dispense 10 nl/well DMSO to column 23 (in 384-well plates) or columns 45-47 (in 1536-well plates). […] These wells will serve as positive control wells.
Step 2. Pre-incubation of inhibitors with kinase: Add 2 μL/well 2× kinase solution. Centrifuge at 1000 rpm for 1 min. Incubate at room temperature for 30 min.
Step 3. Kinase cascade reaction: Add 2 μL/well 2× substrate/ATP solution to initiate kinase reactions. Centrifuge at 1000 rpm for 1 min. Incubate at room temperature for 180 min.
Final concentrations of components in the assay:
Step 4. Quench: Add 2 uL/well ADP Glo Reagent+0.05% CHAPS. Centrifuge at 1000 rpm for 1 min; Incubate at room temperature for one hour.
Step 5. Detection: Add 2 uL/well Kinase Detection Reagent+0.05% CHAPS. Centrifuge at 1000 rpm for 1 min; Incubate at room temperature for 1 hour; Read Luminescence on a plate reader.
as §3
IC50 values are determined from a 4-parameter fit, using the following equation: Y=Bottom+(Top−Bottom)/(1+10^(Log IC50-X)*Hill slope) where X=log10 of the compound concentration; top can be defined by PC; bottom defined by NC.

[1] = molecular target: His6-TEV-PDGFRβ (557-1016) (Homo sapiens (Human), UniProt P09619); assay: PDGFRβ HTRF Assay; format: biochemical; settings: read-out: PDGFR HTRF IC50
His6-TEV-PDGFRβ (557-1016), sequence (P09619 557-1016): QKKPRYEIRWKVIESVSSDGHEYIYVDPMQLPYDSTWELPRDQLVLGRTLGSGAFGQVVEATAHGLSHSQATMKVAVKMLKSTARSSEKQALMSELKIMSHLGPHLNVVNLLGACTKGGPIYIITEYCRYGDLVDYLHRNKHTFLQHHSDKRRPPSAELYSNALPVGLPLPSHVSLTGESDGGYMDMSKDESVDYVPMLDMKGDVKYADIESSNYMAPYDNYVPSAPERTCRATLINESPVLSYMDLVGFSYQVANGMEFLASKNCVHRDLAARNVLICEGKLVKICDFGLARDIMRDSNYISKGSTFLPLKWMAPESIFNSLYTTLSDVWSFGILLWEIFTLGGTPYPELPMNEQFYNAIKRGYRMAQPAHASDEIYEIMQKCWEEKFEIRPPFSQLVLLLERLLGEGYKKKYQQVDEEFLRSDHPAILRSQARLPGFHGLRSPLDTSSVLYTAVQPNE
Protocol: Instrumentation: a. Compound liquid handling: LabCyte Echo; b. Reagent liquid handling: Thermo Scientific Multidrop Combi; c. BMG PHERAStar multilabel plate reader.
Protein Reagent: His6-TEV-PDGFRβ Protein Prep prepared at Accelagen.
as §1
Assay buffer stock solution, contains 50 mM Hepes, 10 mM MgCl2, 1 mM EGTA, and 0.01% Brij-35, 0.01% ovalbumin, 2 mM DTT at pH 7.5, in molecular biology grade water. Store at room temperature.
DTT, 2 M in molecular biology grade water, store at −20° C. in aliquots.
Ovalbumin, 10% or 100 mg/mL, prepare fresh on experimental day.
PDGFRβ, 116 μM (PDGFRb_08 Prep 02), produced at Accelagen. Store at −80° C. in aliquots.
TK-biotin peptide, […] in molecular biology grade water, store at −20° C. in aliquots.
ATP, 100 mM in molecular biology grade water, store at −20° C. in aliquots.
HTRF KinEASE-TK kit: Allow the contents of the Cisbio kit to warm up to room temperature before use. This kit contains HTRF detection buffer, TK-Antibody labeled with Eu^3+-cryptate, TK-substrate biotin and Streptavidin-XL665.
TK Substrate-Biotin, reconstitute 500 μg lyopholized with 574 μL molecular biology grade water to prepare a 500 μM stock; After use, aliquot the rest and store at −20° C.
TK Antibody-Cryptate, reconstitute lyophilized with 1 mL of molecular biology grade water (100× solution) then add 99 mL detection buffer to prepare a ready to use TK-antibody-cryptate solution; the concentration of the TK-antibody-cryptate reagent is not known. After use, aliquot the rest and store at −20° C.
Streptavidin-XL665, reconstitute 3 mg lyophilized with 3 mL molecular biology grade water to prepare a 1 mg/mL or 16.67 μM stock; MW=60 kDa; After use, aliquot the rest and store at −20° C.
as §2
Assay buffer. Dilute 5× Kinase buffer 5-fold with molecular biology grade water and add DTT to 2 mM and ovalbumin to 0.1 mg/mL (or 0.01%).
2× protein solution. Make a working solution of […] PDGFRβ in assay buffer. Keep on ice until use to maintain enzyme stability.
2× substrate solution. Make a working solution of 1.6 mM ATP and 1 μM TK-substrate biotin peptide in assay buffer.
3× quench/detection solution. Make a working solution of 0.1875 μM SA-XL665 and the TK-antibody cryptate diluted by 12 of total quench/detection volume in assay buffer.
Keep final streptavidin/biotin ratio at 1 to 8.
Example of 3× quench/detection solution preparation: 8 mL total volume.
TK antibody-cryptate in detection buffer—4000 μL
The kinase reaction is stopped by the addition of the detection reagents which contain EDTA (detection step).
Assay in white ProxiPlate 384-well
Step 1. Dispensing inhibitors/DMSO and low control: Using the ECHO 555 acoustic dispenser, spot desired compound serial dilutions in DMSO, NEAT DMSO to represent the uninhibited enzyme control, and 10 μM final [imatinib] to the represent the 100% inhibited enzyme control
Step 2. PDGFRβ E+I pre-incubation: Add 2 μL 2× protein solution to columns 1-24 using the Multidrop Combi. Centrifuge at 1000 rpm for 1 min. Incubate 30 min at RT
Step 2. Enzymatic reaction: Add 2 μL substrate solution to columns 1-24 to initiate the reaction using the Multidrop Combi; cover/seal the assay plate to reduce evaporation. Centrifuge at 1000 rpm for 1 min. Incubate at room temperature for 3 hours.
Step 3. Quench/Detection: Add 2 μl 3× quench/detection solution to columns 1-24 using the Multidrop Combi; cover/seal the plate. Centrifuge 1 min 1000 rpm. Incubate at RT for 60 min. Read the plate in PHERAstar (or similar instrument) on HTRF setting at excitation 337 nm—dual emission—665/620 nm ratio.
as §3
HTRF ratio values calculated by the instrument (Ratio is acceptor counts/donor counts*10,000) is exported from the plate reader and used in data analysis. […] Assay statistics can include Robust Z′ and Signal to Background.
% Inhibition Calculation: Percent inhibition will be calculated for sample wells based on the equation: […]

PDGFRβ, sequence (Q05030 32-1097): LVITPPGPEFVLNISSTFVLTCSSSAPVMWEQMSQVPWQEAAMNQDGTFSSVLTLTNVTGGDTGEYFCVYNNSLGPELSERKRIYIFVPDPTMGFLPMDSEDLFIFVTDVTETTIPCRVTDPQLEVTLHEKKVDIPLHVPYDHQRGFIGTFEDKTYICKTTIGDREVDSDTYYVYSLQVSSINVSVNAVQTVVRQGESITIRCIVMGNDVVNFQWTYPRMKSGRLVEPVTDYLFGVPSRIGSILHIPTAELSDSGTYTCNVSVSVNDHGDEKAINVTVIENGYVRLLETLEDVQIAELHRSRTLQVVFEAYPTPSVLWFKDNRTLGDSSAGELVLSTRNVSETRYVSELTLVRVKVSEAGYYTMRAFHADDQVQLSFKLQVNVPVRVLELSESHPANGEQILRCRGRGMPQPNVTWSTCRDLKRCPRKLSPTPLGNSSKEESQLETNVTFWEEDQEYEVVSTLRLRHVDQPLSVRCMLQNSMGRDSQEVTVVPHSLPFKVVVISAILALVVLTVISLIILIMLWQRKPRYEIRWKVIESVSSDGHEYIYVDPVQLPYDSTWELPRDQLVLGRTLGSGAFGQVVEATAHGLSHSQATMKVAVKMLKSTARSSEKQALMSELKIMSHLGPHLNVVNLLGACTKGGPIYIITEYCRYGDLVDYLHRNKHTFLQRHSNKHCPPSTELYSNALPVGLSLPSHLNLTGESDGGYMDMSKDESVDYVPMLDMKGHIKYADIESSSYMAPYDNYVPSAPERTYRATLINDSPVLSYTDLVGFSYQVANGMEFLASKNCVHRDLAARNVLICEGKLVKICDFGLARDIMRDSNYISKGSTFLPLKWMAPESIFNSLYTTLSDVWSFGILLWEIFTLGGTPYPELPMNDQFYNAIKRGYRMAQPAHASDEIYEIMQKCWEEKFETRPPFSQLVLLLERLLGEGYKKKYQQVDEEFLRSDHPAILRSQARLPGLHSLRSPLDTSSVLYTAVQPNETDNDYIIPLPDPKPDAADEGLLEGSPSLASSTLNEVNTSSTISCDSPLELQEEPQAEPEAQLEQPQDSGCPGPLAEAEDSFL

**Q.** Which IC50 (PDGFRβ; PDGFR Cellular IC50) does the source give for Cc1ncc(NC(=O)CN2CC(C)(C)C2)cc1NC(=O)c1cnn2cc(-c3c(C)noc3C)sc12 [Example 364, N-(5-(2-(3,3-dimethylazetidin-1-yl)acetamido)-2-methylpyridin-3-yl)-2-(3,5-dimethylisoxazol-4-yl)pyrazolo[5,1-b]thiazole-7-carboxamide] here?
**A.** Its IC50 is 10.3 nM.

**Q.** And the IC50 (VEGFR2, unphosphorylated)?
**A.** The IC50 was over 7.5 µM.

**Q.** What about the IC50 [1] of the same molecule?
**A.** Its IC50 is 0.8 nM.

**Q.** Which results are given for Cc1ncc(C(=O)NCCN2CC3CCC2CC3)cc1NC(=O)c1cnn2cc(-c3cnn(C)c3)sc12 [Example 1, N-(5-((2-(2-azabicyclo[2.2.2]octan-2-yl)ethyl)carb-amoyl)-2-methylpyridin-3-yl)-2-(1-methyl-1H-pyrazol-4-yl)pyrazolo[5,1-b]thiazole-7-carboxamide]?
**A.** IC50 (PDGFRβ; PDGFR Cellular IC50): 33.8 nM; IC50 (VEGFR2, unphosphorylated): > 7.5 µM; IC50 [1]: 0.2 nM

**Q.** What does the source list for COc1ncccc1-c1cn2ncc(C(=O)Nc3cc(NC(=O)CN4CC(OC)C4)cnc3C)c2s1 [Example 400, N-(5-(2-(3-methoxyazetidin-1-yl)acetamido)-2-methylpyridin-3-yl)-2-(2-methoxypyridin-3-yl)pyrazolo[5,1-b]thiazole-7-carboxamide]?
**A.** IC50 (PDGFRβ; PDGFR Cellular IC50): 14.8 nM; IC50 (VEGFR2, unphosphorylated): > 7.5 µM

**Q.** Which IC50 (PDGFRβ; read-out: PDGFR Cellular IC50) does the source give for COCCn1cc(-c2cn3ncc(C(=O)Nc4cc(NC(=O)CN5CC[C@H](C)C5)cnc4C)c3s2)cn1 (single isomer, unassigned) [Example 328, (S*)-2-(1-(2-methoxyethyl)-1H-pyrazol-4-yl)-N-(2-methyl-5-(2-(3-methylpyrrolidin-1-yl)acetamido)pyridin-3-yl)pyrazolo[5,1-b]thiazole-7-carboxamide] here?
**A.** The IC50 was 7.1 nM.

**Q.** What about the IC50 (VEGFR2, unphosphorylated) of the same molecule?
**A.** The IC50 was over 7.5 µM.

**Q.** Which IC50 (PDGFRβ; PDGFR Cellular IC50) does the source give for COC1CCN(CC(=O)Nc2cnc(C)c(NC(=O)c3cnn4cc(-c5cn(C)nc5C)sc34)c2)C1 (stereo not drawn) [Example 439, 2-(1,3-Dimethyl-1H-pyrazol-4-yl)-N-(5-(2-(3-methoxypyrrolidin-1-yl)acetamido)-2-methylpyridin-3-yl)pyrazolo[5,1-b]thiazole-7-carboxamide] here?
**A.** Its IC50 is 12.2 nM.

**Q.** And the IC50 (VEGFR2, unphosphorylated)?
**A.** Its IC50 is over 7.5 µM.

**Q.** Which IC50 (PDGFRβ; PDGFR Cellular IC50) does the source give for Cc1ncc(NC(=O)CN2CCC[C@@H]2C)cc1NC(=O)c1cnn2cc(-c3cn(C)nc3C)sc12 [Example 438, (S)-2-(1,3-dimethyl-1H-pyrazol-4-yl)-N-(2-methyl-5-(2-(2-methylpyrrolidin-1-yl)acetamido)pyridin-3-yl)pyrazolo[5,1-b]thiazole-7-carboxamide] here?
**A.** The IC50 was 3.7 nM.

**Q.** What about the IC50 (VEGFR2, unphosphorylated) of the same molecule?
**A.** The IC50 was over 7.5 µM.

**Q.** COCCn1cc(-c2cn3ncc(C(=O)Nc4cc(NC(=O)CN5CC[C@@H](C)C5)cnc4C)c3s2)cn1 (single isomer, unassigned) [Example 327, (R*)-2-(1-(2-methoxyethyl)-1H-pyrazol-4-yl)-N-(2-methyl-5-(2-(3-methylpyrrolidin-1-yl)acetamido)pyridin-3-yl)pyrazolo[5,1-b]thiazole-7-carboxamide] was tested. Which IC50 (PDGFRβ; read-out: PDGFR Cellular IC50) did it give?
**A.** Its IC50 is 9.9 nM.

**Q.** And the IC50 (VEGFR2, unphosphorylated)?
**A.** The IC50 was over 7.5 µM.

**Q.** Which IC50 (PDGFRβ; PDGFR Cellular IC50) does the source give for Cc1ncc(NC(=O)CN2CCC[C@H]2C)cc1NC(=O)c1cnn2cc(-c3cn(C)nc3C)sc12 [Example 440, (R)-2-(1,3-dimethyl-1H-pyrazol-4-yl)-N-(2-methyl-5-(2-(2-methylpyrrolidin-1-yl)acetamido)pyridin-3-yl)pyrazolo[5,1-b]thiazole-7-carboxamide] here?
**A.** Its IC50 is 1.6 nM.

**Q.** What about the IC50 (VEGFR2, unphosphorylated) of the same molecule?
**A.** The IC50 was over 7.5 µM.

**Q.** With CCOC1CN(CC(=O)Nc2cnc(C)c(NC(=O)c3cnn4cc(-c5cccnc5OC)sc34)c2)C1 [Example 401] as the molecule, how does the IC50 (PDGFRβ; read-out: PDGFR Cellular IC50) read?
**A.** The IC50 was 10.3 nM.

**Q.** With COc1ncccc1-c1cn2ncc(C(=O)Nc3cc(NC(=O)CN4C[C@H](CO)O[C@@H](C)C4)cnc3C)c2s1 (stereo in doubt) [Example 381, N-(5-(2-(cis-2-(hydroxymethyl)-6-methylmorpholino)acetamido)-2-methylpyridin-3-yl)-2-(2-methoxypyridin-3-yl)pyrazolo[5,1-b]thiazole-7-carboxamide] as the molecule, how does the IC50 (PDGFRβ; read-out: PDGFR Cellular IC50) read?
**A.** Its IC50 is 16 nM.

**Q.** And the IC50 (VEGFR2, unphosphorylated)?
**A.** Its IC50 is over 0.833 µM.
